Legend:
[1] = Paclitaxel plasma pharmacokinetics; format: in vivo, human; conditions: paclitaxel 60 mg/m^2; with daily oral TAK-659
[2] = system: patients with advanced solid tumors; format: in vivo, human
[3] = system: CYP3A4; conditions: overlapping elimination mechanisms; cited from earlier work
[4] = system: patients with acute myeloid leukemia (AML); conditions: TAK-659 monotherapy, doses of up to 160 mg daily; cited from earlier work
[5] = TAK-659 plasma pharmacokinetics; format: in vivo, human; conditions: for AUC0-t increase from day 1 to day 15 / clearance decrease from day 1 to day 15: with paclitaxel

SMILES | increase in exposure (AUC), cycle 1 day 15 compared with cycle 1 day 1 [1] [%] | reduction in clearance, cycle 1 day 15 compared with cycle 1 day 1 [1] [%] | patients with paclitaxel dose reduced ([2]; Nine of 49 patients, given with TAK-659) [%] | substrate for CYP3A4, a major drug metabolizing enzyme [3] | patients with dose of TAK-659 reduced ([2]; Six of 49 patients, given with paclitaxel) [%] | recommended phase II dose of TAK-659 ([2]; oral, combined with paclitaxel) [mg daily] | patients who needed a second dose reduction of TAK-659 ([2]; two of 49 patients, given with paclitaxel) [%] | MTD [4] | increase in terminal elimination half-life from day 1 to day 15 ([5]; 60-mg dosing cohort, not statistically significant (P = 0.1650)) [%] | AUC0-t increase from day 1 to day 15 ([5]; 60-mg dosing group) [%] | clearance decrease from day 1 to day 15 ([5]; 60-mg dosing group) [%] | AUC0-t increase from day 1 to day 15 ([5]; 80-mg dosing group) [%] | clearance decrease from day 1 to day 15 ([5]; 80-mg dosing group) [%] | AUC0-t increase from day 1 to day 15 ([5]; 100-mg dosing group) [%] | clearance decrease from day 1 to day 15 ([5]; 100-mg dosing group) [%]
CC(=O)O[C@H]1C(=O)[C@@]2(C)[C@H]([C@H](OC(=O)c3ccccc3)[C@]3(O)C[C@H](OC(=O)[C@H](O)[C@@H](NC(=O)c4ccccc4)c4ccccc4)C(C)=C1C3(C)C)[C@]1(OC(C)=O)CO[C@@H]1C[C@@H]2O [Paclitaxel, paclitaxel, reference compound] | ~28 | ~20 | 18 | substrates |  |  |  |  |  |  |  |  |  |  | 
Cn1cc(-c2nc(N[C@@H]3CCCC[C@@H]3N)c(F)c3c2C(=O)NC3)cn1 [TAK-659, mivavotinib] |  |  |  | substrates | 12 | 80 | 4 | not reached | 41 | 40 | 36 | 66 | 31 | 91 | 46
